Assay results as given in US20130210061A1, “Method of Screening Damp-Dry Malodor Inhibitor and Method of Evaluating Damp-Dry Malodor Inhibitor” (KAO CORPORATION, priority 2010, published 2013).
Like-named read-outs stand apart in the source and are kept apart here.

What was measured:
Experiment in all cases: Example 1: quantification of 4M3H on cotton fabric with 14-methylhexadecanoic acid
S. cerevisiae NBRC1661 = assay type: cell-based, Saccaromyces cerevisiae; conditions: 37° C., 24 hours, vs sterilized water
Method: (§1) 10 mL of methanol was added to the towel that had been left to stand still for 24 hours, and 1 mL of the methanol was mixed with 1 mL of ADAM (9-anthrydiazomethanene, manufactured by Funakoshi Corp., 0.1 w/v %). The mixture was left to stand for 60 minutes at room temperature, and thus derivatization was carried out.
(§2) Thereafter, 10 μL of the solution was analyzed by using LC-FL (liquid chromatography apparatus: HITACHI ELITE LaChrom (trade name, manufactured by Hitachi, Ltd.), column: Lichrosphere 100 RP-8(e) (trade name, manufactured by Agilent Technologies, Inc., 5 μm×125 mm×4 mmφ), column temperature: 40° C., eluent a mixed solution of acetonitrile/water=7/3 (volume ratio), flow rate: 1.0 mL/min, detector: excitation wavelength (365 nm), measurement wavelength (412 nm)), and thereby quantification of 4M3H thus produced was carried out. In regard to the amount of production of 4M3H, a sample which produced 4M3H in an amount of more than 1 μg was rated as “[…]”; a sample which produced 4M3H in an amount of more than 0.1 μg and 1 μg or less was rated as “∘”; a sample which produced 4M3H in an amount of more than 0 μg and 0.1 μg or less was rated as “Δ”; and a sample in which no 4M3H was detected was rated as “x”.
(§3) One platinum loop of each of Moraxella osloensis NCIMB10693, Moraxella sp. 4-1, Psychrobacter pacificensis NBRC103191, Psychrobacter glacincola NCIMB101053, Pseudomonas alcaligenes No. 41, Acinetobacter calcoaceticus HH2BD-49, Saccaromyces cerevisiae NBRC1661, Rhodotorula mucilaginosa NBRC0909 and Rhodotorula slooffiae 13c was inoculated into 5 mL of a SCD liquid medium (manufactured by Nihon Pharmaceutical Co., Ltd.), and the microbial cells were subjected to shaking culture (160 rpm) at 35° C. for 24 hours. The microbial cells obtained after culture were centrifuged (8000×g, 10 minutes), the supernatant was removed, and then the microbial cells were suspended in 5 mL of physiological saline. The suspension was centrifuged again (8000×g, 10 minutes), subsequently the supernatant was removed, and a microbial suspension was prepared by using physiological saline such that the OD600 would be 0.1.
(§4) Furthermore, 0.1 mL each of 10-ppm or 100-ppm aqueous solutions of the compounds shown in the following Table 6 was applied on the fabric described above. As a control, a fabric on which sterilized water was applied instead of the compounds described below was also prepared.
(§5) On a plain-woven cotton fabric prepared as described above, 0.1 mL each of the various microbial suspensions was inoculated, and the samples were left to stand still under humidified conditions at 37° C. for 24 hours and were subjected to an evaluation such as described below.
(§6) Quantification of 4M3H was carried out by the same method as that used in Test Example 3, and by taking as a reference the 4M3H production amount of a sample on which sterilized water was applied as a test substance, the 4M3H production amounts in the case of applying other test substances were evaluated on the basis of the following criteria. • A: (4M3H production amount in the case of applying a test substance)<( 1/100 of the 4M3H production amount in the case of applying sterilized water) • B: ( 1/100 of the 4M3H production amount in the case of applying sterilized water)≦(4M3H production amount in the case of applying a test substance)<( 1/10 of the 4M3H production amount in the case of applying sterilized water) • C: ( 1/10 of the 4M3H production amount in the case of applying sterilized water)≦(4M3H production amount in the case of applying a test substance)<(4M3H production amount in the case of applying sterilized water) • D: (4M3H production amount in the case of applying sterilized water)≦(4M3H production amount in the case of applying a test substance)

[1] = tested on: A. calcoaceticus HH2BD-49; assay type: cell-based, Acinetobacter calcoaceticus; conditions: 37° C., 24 hours, vs sterilized water
Method: as §1, §2, §3, §4, §5, §6

[2] = tested on: P. pacificensis NBRC103191; assay type: cell-based, Psychrobacter pacificensis; conditions: 37° C., 24 hours, vs sterilized water
Method: as §1, §2, §3, §4, §5, §6

P. glacincola NBRC101053 = assay type: cell-based, Psychrobacter glacincola; conditions: 37° C., 24 hours, vs sterilized water
Method: as §1, §2, §3, §4, §5, §6

R. muculaginosa NBRC0909 = assay type: cell-based, Rhodotorula mucilaginosa; conditions: 37° C., 24 hours, vs sterilized water
Method: as §1, §2, §3, §4, §5, §6

R. slooffiae 13c = assay type: cell-based, Rhodotorula slooffiae; conditions: 37° C., 24 hours, vs sterilized water
Method: as §1, §2, §3, §4, §5, §6

P. alcaligenes No. 41 = assay type: cell-based, Pseudomonas alcaligenes; conditions: 37° C., 24 hours, vs sterilized water
Method: as §1, §2, §3, §4, §5, §6

M. osloensis NCIMB10693 = assay type: cell-based, Moraxella osloensis
Method: as §1, §2, §3, §4, §5, §6

Moraxella sp. 4-1 = assay type: cell-based; conditions: 37° C., 24 hours, vs sterilized water
Method: as §1, §2, §3, §4, §5, §6

[3] = 10 ppm test substance, M. osloensis NCIMB10693, cotton fabric with 14-methylhexadecanoic acid, 37° C., 24 hours, vs sterilized water
[4] = 100 ppm test substance, M. osloensis NCIMB10693, cotton fabric with 14-methylhexadecanoic acid, 37° C., 24 hours, vs sterilized water
[5] = Faucicola osloensis, NCIMB10693, 24 h, read-out: Production amount of 4M3H
[6] = Faucicola osloensis, 100 ppm test substance, M. osloensis NCIMB10693, cotton fabric with 14-methylhexadecanoic acid, 37° C., 24 hours, vs sterilized water, read-out: Production amount of 4M3H

CN(C)c1ccc(/C([S-])=C(/[S-])c2ccccc2)cc1.CN(C)c1ccc(/C([S-])=C(/[S-])c2ccccc2)cc1.[Ni] [Bis(4-dimethylaminodithiobenzil)nickel]
Production amount of 4M3H (S. cerevisiae NBRC1661; 10 ppm test substance): C (( 1/10 of the 4M3H production amount in the case of applying sterilized water)≦(4M3H production amount in the case of applying a test substance)<(4M3H production amount in the case of applying sterilized water)) | Production amount of 4M3H (S. cerevisiae NBRC1661; 100 ppm test substance): A ((4M3H production amount in the case of applying a test substance)<( 1/100 of the 4M3H production amount in the case of applying sterilized water)) | Production amount of 4M3H ([1]; 10 ppm test substance): B (( 1/100 of the 4M3H production amount in the case of applying sterilized water)≦(4M3H production amount in the case of applying a test substance)<( 1/10 of the 4M3H production amount in the case of applying sterilized water)) | Production amount of 4M3H ([1]; 100 ppm test substance): A ((4M3H production amount in the case of applying a test substance)<( 1/100 of the 4M3H production amount in the case of applying sterilized water)) | Production amount of 4M3H ([2]; 10 ppm test substance): C (( 1/10 of the 4M3H production amount in the case of applying sterilized water)≦(4M3H production amount in the case of applying a test substance)<(4M3H production amount in the case of applying sterilized water)) | Production amount of 4M3H ([2]; 100 ppm test substance): B (( 1/100 of the 4M3H production amount in the case of applying sterilized water)≦(4M3H production amount in the case of applying a test substance)<( 1/10 of the 4M3H production amount in the case of applying sterilized water)) | Production amount of 4M3H (P. glacincola NBRC101053; 10 ppm test substance): A ((4M3H production amount in the case of applying a test substance)<( 1/100 of the 4M3H production amount in the case of applying sterilized water)) | Production amount of 4M3H (P. glacincola NBRC101053; 100 ppm test substance): A ((4M3H production amount in the case of applying a test substance)<( 1/100 of the 4M3H production amount in the case of applying sterilized water)) | Production amount of 4M3H (R. muculaginosa NBRC0909; 10 ppm test substance): B (( 1/100 of the 4M3H production amount in the case of applying sterilized water)≦(4M3H production amount in the case of applying a test substance)<( 1/10 of the 4M3H production amount in the case of applying sterilized water)) | Production amount of 4M3H (R. muculaginosa NBRC0909; 100 ppm test substance): A ((4M3H production amount in the case of applying a test substance)<( 1/100 of the 4M3H production amount in the case of applying sterilized water)) | Production amount of 4M3H (R. slooffiae 13c; 10 ppm test substance): C (( 1/10 of the 4M3H production amount in the case of applying sterilized water)≦(4M3H production amount in the case of applying a test substance)<(4M3H production amount in the case of applying sterilized water)) | Production amount of 4M3H (R. slooffiae 13c; 100 ppm test substance): A ((4M3H production amount in the case of applying a test substance)<( 1/100 of the 4M3H production amount in the case of applying sterilized water)) | Production amount of 4M3H (P. alcaligenes No. 41; 10 ppm test substance): C (( 1/10 of the 4M3H production amount in the case of applying sterilized water)≦(4M3H production amount in the case of applying a test substance)<(4M3H production amount in the case of applying sterilized water)) | Production amount of 4M3H (P. alcaligenes No. 41; 100 ppm test substance): A ((4M3H production amount in the case of applying a test substance)<( 1/100 of the 4M3H production amount in the case of applying sterilized water)) | Production amount of 4M3H (M. osloensis NCIMB10693; [3]): C (( 1/10 of the 4M3H production amount in the case of applying sterilized water)≦(4M3H production amount in the case of applying a test substance)<(4M3H production amount in the case of applying sterilized water)) | Production amount of 4M3H (M. osloensis NCIMB10693; [4]): A ((4M3H production amount in the case of applying a test substance)<( 1/100 of the 4M3H production amount in the case of applying sterilized water)) | Production amount of 4M3H (Moraxella sp. 4-1; 10 ppm test substance): B (( 1/100 of the 4M3H production amount in the case of applying sterilized water)≦(4M3H production amount in the case of applying a test substance)<( 1/10 of the 4M3H production amount in the case of applying sterilized water)) | Production amount of 4M3H (Moraxella sp. 4-1; 100 ppm test substance): A ((4M3H production amount in the case of applying a test substance)<( 1/100 of the 4M3H production amount in the case of applying sterilized water))

O=C/C=C/c1ccccc1 [Cinnamic aldehyde]
activity at 10 ppm (M. osloensis NCIMB10693; [5]): 10 to 100% | activity at 100 ppm (M. osloensis NCIMB10693; [5]): < 1%

CCCCCCCCCCCC[N+](C)(C)C [Dodecyl trimethyl ammonium chloride]
activity at 100 ppm (M. osloensis NCIMB10693; [5]): 10 to 100%

CCCCCCCCCCCCCCCC[N+](C)(C)C [Hexadecyl trimethyl ammonium chloride]
activity at 100 ppm (M. osloensis NCIMB10693; [5]): > 100%

CCCCC/C=C\C/C=C\CCCCCCCC(=O)O [Linoleic acid]
activity at 100 ppm (M. osloensis NCIMB10693; [6]): 1 to 10%

CC/C=C\C/C=C\C/C=C\CCCCCCCC(=O)O [Linolenic acid]
activity at 100 ppm (M. osloensis NCIMB10693; [6]): 1 to 10%

CCCCCCCCCCCCCCCC(=O)O [Palmitic acid]
activity at 100 ppm (M. osloensis NCIMB10693; [6]): 10 to 100%

CCCCCCCCCCCCCCCCCC(=O)O [Stearic acid]
activity at 100 ppm (M. osloensis NCIMB10693; [6]): 10 to 100%

CCCCCCCCCCCCCC[N+](C)(C)C [Tetradecyl trimethyl ammonium chloride]
activity at 100 ppm (M. osloensis NCIMB10693; [6]): 10 to 100%

Polylysine
Production amount of 4M3H (M. osloensis NCIMB10693; [3]): D ((4M3H production amount in the case of applying sterilized water)≦(4M3H production amount in the case of applying a test substance)) | Production amount of 4M3H (M. osloensis NCIMB10693; [4]): C (( 1/10 of the 4M3H production amount in the case of applying sterilized water)≦(4M3H production amount in the case of applying a test substance)<(4M3H production amount in the case of applying sterilized water))

Polyoxyethylene (10) lauryl ether
Production amount of 4M3H (M. osloensis NCIMB10693; [4]): D ((4M3H production amount in the case of applying sterilized water)≦(4M3H production amount in the case of applying a test substance))

Sodium alkylbenzene sulfonate [Sodium akylbenzene sulfonate]
Production amount of 4M3H (M. osloensis NCIMB10693; [4]): C (( 1/10 of the 4M3H production amount in the case of applying sterilized water)≦(4M3H production amount in the case of applying a test substance)<(4M3H production amount in the case of applying sterilized water))
